Columns and labels:
Format in all cases: biochemical
Jarid1A = Jarid1A (Homo sapiens (Human), UniProt P29375); test: Jarid1A in vitro enzyme inhibition assay (TR-FRET)
Excerpt: The enzymatic assay of Jarid1A activity is based upon Time Resolved-Fluorescence Resonance Energy Transfer (TR-FRET) detection.

Jarid1B = Jarid1B (Homo sapiens (Human), UniProt Q9UGL1); test: Jarid1B in vitro enzyme inhibition assay (TR-FRET)
Protocol: This assay determines the ability of a test compound to inhibit Jarid1A, Jarid1B, JMJD2C, and JMJD2A demethylase activity.
The ability of test compounds to inhibit the activity of Jarid1B was determined in 384-well plate format under the following reaction conditions: 0.8 nM Jarid1B, 300 nM H3K4me3-biotin labeled peptide (Anaspec cat #64357), 2 μM alpha-ketoglutaric acid in assay buffer of 50 mM HEPES, pH7.3, 0.005% Brij35, 0.5 mM TCEP, 0.2 mg/ml BSA, 50 μM sodium L-ascorbate, and 2 μM ammonium iron(II) sulfate. Reaction product was determined quantitatively by TR-FRET after the addition of detection reagent Phycolink Streptavidin-allophycocyanin (Prozyme) and Europium-anti-mono- or di-methylated histone H3 lysine 4 (H3K4me1-2) antibody (PerkinElmer) in the presence of 5 mM EDTA in LANCE detection buffer (PerkinElmer) at a final concentration of 25 nM and 1 nM, respectively.
The assay reaction was initiated by the following: 2 μl of the mixture of 900 nM H3K4me3-biotin labeled peptide and 6 μM alpha-ketoglutaric acid with 2 μl of 11-point serial diluted inhibitor in 3% DMSO was added to each well of the plate, followed by the addition of 2 μl of 2.4 nM Jarid1B to initiate the reaction. The reaction mixture was incubated at room temperature for 30 minutes, and terminated by the addition of 6 μl of 5 mM EDTA in LANCE detection buffer containing 50 nM Phycolink Streptavidin-allophycocyanin and 2 nM Europium-anti-H3K4me1-2 antibody. Plates were read by EnVisionMultilabel Reader in TR-FRET mode (excitation at 320 nm, emission at 615 nm and 665 nm) after 1 hour incubation at room temperature. A ratio was calculated (665/615) for each well and fitted to determine inhibition constant (IC50).

JMJD2C = JMJD2C (Homo sapiens (Human), UniProt Q9H3R0); test: JMJD2C in vitro enzyme inhibition assay (TR-FRET)
FBXL10 = FBXL10 (Homo sapiens (Human), UniProt Q8NHM5); test: FBXL10 in vitro enzyme inhibition assay (AlphaScreen)
Protocol: Reaction product was determined quantitatively by AlphaScreen detection after the addition of detection reagents anti-H3K36me1 antibody, AlphaScreen® Streptavidin-coated Donor beads, and AlphaScreen® Protein A Acceptor beads in 50 mM HEPES, pH7.3, 10 mM NaCl, 0.005% Brij35, 5 mM EDTA, 2 mg/ml BSA to final 10 μg/ml beads.
Plates were incubated at room temperature for 40 minutes, followed by addition of 3 μl of 50 μg/ml AlphaScreen® Streptavidin-coated Donor beads and AlphaScreen® Protein A Acceptor beads in 50 mM HEPES, pH7.3, 10 mM NaCl, 0.005% Brij35, 5 mM EDTA, 2 mg/ml BSA. Plates were read by EnVisionMultilabel Reader in AlphaScreen mode after a minimum of 2 hour or up to overnight incubation at room temperature. The AlphaScreen signal for each well was used to determine inhibition constant (IC50).

Chain of FBXL10 (Q8NHM5 1-650): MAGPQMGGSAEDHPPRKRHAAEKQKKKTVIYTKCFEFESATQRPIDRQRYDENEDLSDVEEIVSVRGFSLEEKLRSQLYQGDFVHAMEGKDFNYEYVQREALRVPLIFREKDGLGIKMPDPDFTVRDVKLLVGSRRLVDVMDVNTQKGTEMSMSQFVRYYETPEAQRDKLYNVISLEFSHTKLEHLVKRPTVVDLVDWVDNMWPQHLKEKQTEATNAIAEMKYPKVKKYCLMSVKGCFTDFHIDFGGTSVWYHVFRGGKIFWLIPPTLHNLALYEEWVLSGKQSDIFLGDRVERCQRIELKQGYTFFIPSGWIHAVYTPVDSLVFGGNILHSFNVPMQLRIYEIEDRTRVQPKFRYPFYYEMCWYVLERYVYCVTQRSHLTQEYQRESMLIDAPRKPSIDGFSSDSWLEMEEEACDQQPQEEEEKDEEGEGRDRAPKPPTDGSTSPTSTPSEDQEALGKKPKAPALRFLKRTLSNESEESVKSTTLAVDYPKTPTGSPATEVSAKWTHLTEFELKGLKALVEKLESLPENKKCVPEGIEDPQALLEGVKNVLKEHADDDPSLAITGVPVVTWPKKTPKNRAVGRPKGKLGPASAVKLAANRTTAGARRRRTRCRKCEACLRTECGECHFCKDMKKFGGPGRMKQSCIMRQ
Chain of JMJD2C (Q9H3R0 2-372): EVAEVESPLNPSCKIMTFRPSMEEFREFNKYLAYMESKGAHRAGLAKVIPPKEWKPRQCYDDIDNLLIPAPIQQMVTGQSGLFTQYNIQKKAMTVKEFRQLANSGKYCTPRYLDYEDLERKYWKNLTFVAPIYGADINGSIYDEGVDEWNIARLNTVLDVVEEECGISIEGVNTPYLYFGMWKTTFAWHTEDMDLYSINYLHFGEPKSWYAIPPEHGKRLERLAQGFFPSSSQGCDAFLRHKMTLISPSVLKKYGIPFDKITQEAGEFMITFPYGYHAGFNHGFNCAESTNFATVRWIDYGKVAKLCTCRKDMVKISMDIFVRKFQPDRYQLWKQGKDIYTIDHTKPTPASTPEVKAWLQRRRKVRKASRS
Chain of Jarid1B (Q9UGL1 2-751): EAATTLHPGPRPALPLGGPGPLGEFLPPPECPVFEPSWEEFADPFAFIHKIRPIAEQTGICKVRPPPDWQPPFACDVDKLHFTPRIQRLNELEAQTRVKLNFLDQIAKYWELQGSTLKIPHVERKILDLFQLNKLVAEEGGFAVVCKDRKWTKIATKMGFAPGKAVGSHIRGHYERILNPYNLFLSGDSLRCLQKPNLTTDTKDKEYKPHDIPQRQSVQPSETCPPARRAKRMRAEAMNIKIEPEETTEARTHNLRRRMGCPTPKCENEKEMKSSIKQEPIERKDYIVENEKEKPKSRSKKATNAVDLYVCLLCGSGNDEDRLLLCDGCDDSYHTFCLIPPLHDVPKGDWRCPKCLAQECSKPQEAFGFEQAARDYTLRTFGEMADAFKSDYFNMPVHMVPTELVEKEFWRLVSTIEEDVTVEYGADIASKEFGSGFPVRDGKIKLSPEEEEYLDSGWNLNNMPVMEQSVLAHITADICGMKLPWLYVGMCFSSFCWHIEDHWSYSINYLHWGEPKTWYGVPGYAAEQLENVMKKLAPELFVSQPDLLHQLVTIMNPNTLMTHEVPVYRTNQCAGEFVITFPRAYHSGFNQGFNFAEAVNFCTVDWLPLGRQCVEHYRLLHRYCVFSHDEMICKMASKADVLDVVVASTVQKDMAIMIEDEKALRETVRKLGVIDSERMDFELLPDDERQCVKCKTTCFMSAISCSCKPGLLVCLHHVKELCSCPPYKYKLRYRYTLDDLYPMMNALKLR
Chain of Jarid1A (P29375 1-1090): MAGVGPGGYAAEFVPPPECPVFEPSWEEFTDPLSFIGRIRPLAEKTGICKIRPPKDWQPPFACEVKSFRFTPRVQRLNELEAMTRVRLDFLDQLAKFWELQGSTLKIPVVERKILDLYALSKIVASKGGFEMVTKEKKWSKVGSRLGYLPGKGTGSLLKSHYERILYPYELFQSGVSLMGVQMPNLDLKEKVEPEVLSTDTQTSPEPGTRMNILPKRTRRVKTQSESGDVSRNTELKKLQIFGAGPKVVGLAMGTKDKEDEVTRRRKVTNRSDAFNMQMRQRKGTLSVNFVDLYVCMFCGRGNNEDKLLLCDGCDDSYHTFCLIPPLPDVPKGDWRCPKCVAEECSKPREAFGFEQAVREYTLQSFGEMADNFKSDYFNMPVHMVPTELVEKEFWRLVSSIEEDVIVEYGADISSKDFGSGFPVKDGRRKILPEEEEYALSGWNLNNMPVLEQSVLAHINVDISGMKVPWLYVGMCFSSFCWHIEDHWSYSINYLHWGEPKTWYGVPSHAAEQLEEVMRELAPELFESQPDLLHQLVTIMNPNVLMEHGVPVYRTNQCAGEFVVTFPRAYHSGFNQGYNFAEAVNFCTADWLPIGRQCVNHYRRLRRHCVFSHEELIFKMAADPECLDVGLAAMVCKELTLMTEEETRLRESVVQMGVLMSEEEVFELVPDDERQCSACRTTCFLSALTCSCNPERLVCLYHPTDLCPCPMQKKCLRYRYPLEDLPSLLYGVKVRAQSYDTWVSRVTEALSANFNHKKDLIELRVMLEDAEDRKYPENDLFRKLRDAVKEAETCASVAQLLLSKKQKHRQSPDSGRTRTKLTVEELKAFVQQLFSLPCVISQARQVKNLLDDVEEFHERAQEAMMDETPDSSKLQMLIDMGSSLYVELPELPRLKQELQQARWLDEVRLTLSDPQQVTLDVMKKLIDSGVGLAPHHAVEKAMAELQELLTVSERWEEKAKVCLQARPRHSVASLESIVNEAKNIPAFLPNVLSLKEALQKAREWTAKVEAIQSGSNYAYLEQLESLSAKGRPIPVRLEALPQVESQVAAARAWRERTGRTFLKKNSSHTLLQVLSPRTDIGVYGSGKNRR

| IC50 (Jarid1A) [nM] | IC50 (Jarid1B) [nM] | IC50 (JMJD2C) [nM] | IC50 (FBXL10) [nM] | SMILES |
| --- | --- | --- | --- | --- |
| ≤ 100 | ≤ 100 | 100 to 1000 | – | Cn1cnc(-c2cc(C(=O)O)ccn2)c1-c1ccc(C2(CO)CC2)cc1 [Example 17, 2-(5-{4-[1-(hydroxymethyl)cyclopropyl]phenyl}-1-methyl-1H-imidazol-4-yl)pyridine-4-carboxylic acid] |
| 100 to 1000 | 100 to 1000 | 1000 to 10000 | – | Cn1cnc(-c2cc(C(=O)O)ccn2)c1-c1ccc(C(C)(C)C)cc1 [Example 9, 2-[5-(4-tert-butylphenyl)-1-methyl-1H-imidazol-4-yl]pyridine-4-carboxylic acid] |
| ≤ 100 | ≤ 100 | 100 to 1000 | – | Cn1cnc(-c2cc(C(=O)O)ccn2)c1-c1ccc(C2(C(F)(F)F)CC2)cc1 [Example 34, 2-(1-methyl-5-{4-[1-(trifluoromethyl)cyclopropyl]phenyl}-1H-imidazol-4-yl)pyridine-4-carboxylic acid] |
| ≤ 100 | ≤ 100 | ≤ 100 | – | COc1ccc(CCn2cnc(-c3cc(C(=O)O)ccn3)c2)cc1 [Example 94, 2-[1-[2-(4-methoxyphenyl)ethyl]imidazol-4-yl]pyridine-4-carboxylic acid] |
| ≤ 100 | 100 to 1000 | 1000 to 10000 | – | Cc1cc(Cl)ccc1-c1c(-c2cc(C(=O)O)ccn2)ncn1C [Example 26, 2-[5-(4-chloro-2-methylphenyl)-1-methyl-1H-imidazol-4-yl]pyridine-4-carboxylic acid] |
| 1000 to 10000 | 100 to 1000 | > 10000 | – | O=C(O)c1ccnc(-c2cn(CCN3CCOCC3)cn2)c1 [Example 45, 2-{1-[2-(morpholin-4-yl)ethyl]-1H-imidazol-4-yl}pyridine-4-carboxylic acid] |
| ≤ 100 | ≤ 100 | ≤ 100 | – | CC(Cn1cnc(-c2cc(C(=O)O)ccn2)c1)N1CCCC1 (stereo not drawn) [Example 61, 2-{1-[2-(pyrrolidin-1-yl)propyl]-1H-imidazol-4-yl}pyridine-4-carboxylic acid] |
| – | – | 1000 to 10000 | ≤ 100 | c1ccc2c(Cn3cnc(-c4cc(-c5nn[nH]n5)ccn4)c3)cccc2c1 [Example 155, 2-[1-(naphthalen-1-ylmethyl)imidazol-4-yl]-4-(2H-tetrazol-5-yl)pyridine] |
| ≤ 100 | ≤ 100 | 1000 to 10000 | – | COCC1(c2ccc(-c3c(-c4cc(C(=O)O)ccn4)ncn3C)cc2)CC1 [Example 25, 2-(5-{4-[1-(methoxymethyl)cyclopropyl]phenyl}-1-methyl-1H-imidazol-4-yl)pyridine-4-carboxylic acid] |
| 100 to 1000 | 100 to 1000 | 1000 to 10000 | – | CNC(=O)c1cccc(-c2c(-c3cc(C(=O)O)ccn3)ncn2C)c1 [Example 10, 2-{1-methyl-5-[3-(methylcarbamoyl)phenyl]-1H-imidazol-4-yl}pyridine-4-carboxylic acid] |
| – | – | 1000 to 10000 | ≤ 100 | Fc1ccc(-c2c(-c3cc(-c4nn[nH]n4)ccn3)ncn2Cc2ccccc2Cl)cc1 [Example 137, 2-[1-[(2-chlorophenyl)methyl]-5-(4-fluorophenyl)imidazol-4-yl]-4-(2H-tetrazol-5-yl)pyridine] |
| ≤ 100 | ≤ 100 | ≤ 100 | – | O=C(O)c1ccnc(-c2cn(CCNCc3ccccc3C(F)(F)F)cn2)c1 [Example 75, 2-[1-[2-[[2-(trifluoromethyl)phenyl]methylamino]ethyl]imidazol-4-yl]pyridine-4-carboxylic acid] |
| – | – | 1000 to 10000 | 100 to 1000 | Fc1ccc(-c2c(-c3cc(-c4nn[nH]n4)ccn3)ncn2Cc2cccc(Cl)c2)c(OCC2CC2)c1 [Example 169, 2-(1-(3-chlorobenzyl)-5-(2-(cyclopropylmethoxy)-4-fluorophenyl)-1H-imidazol-4-yl)-4-(2H-tetrazol-5-yl)pyridine] |
| – | – | 1000 to 10000 | 100 to 1000 | CC(C)COc1ccccc1Cn1cnc(-c2cc(-c3nn[nH]n3)ccn2)c1 [Example 153, 2-[1-[[2-(2-methylpropoxy)phenyl]methyl]imidazol-4-yl]-4-(2H-tetrazol-5-yl)pyridine] |
| – | – | 1000 to 10000 | ≤ 100 | Fc1ccc(-c2c(-c3cc(-c4nn[nH]n4)ccn3)ncn2CC2CC2)cc1 [Example 135, 2-[1-(cyclopropylmethyl)-5-(4-fluorophenyl)imidazol-4-yl]-4-(2H-tetrazol-5-yl)pyridine] |
| – | – | 1000 to 10000 | ≤ 100 | FC(F)(F)Oc1ccccc1Cn1cnc(-c2cc(-c3nn[nH]n3)ccn2)c1 [Example 156, 4-(2H-tetrazol-5-yl)-2-[1-[[2-(trifluoromethoxy)phenyl]methyl]imidazol-4-yl]pyridine] |
| – | – | 1000 to 10000 | ≤ 100 | c1ccc2c(c1)CC(Cn1cnc(-c3cc(-c4nn[nH]n4)ccn3)c1)C2 [Example 147, 2-[1-(2,3-dihydro-1H-inden-2-ylmethyl)imidazol-4-yl]-4-(2H-tetrazol-5-yl)pyridine] |
| – | – | 1000 to 10000 | ≤ 100 | Cn1cnc(-c2cc(-c3nn[nH]n3)ccn2)c1-c1ccc(F)c(O)c1 [Example 162, 2-fluoro-5-[3-methyl-5-[4-(2H-tetrazol-5-yl)pyridin-2-yl]imidazol-4-yl]phenol] |
| – | – | 100 to 1000 | ≤ 100 | O=C(O)c1ccnc(-c2ncn(CC3CC3)c2-c2ccc(F)cc2)c1 [Example 125, 2-[1-(cyclopropylmethyl)-5-(4-fluorophenyl)imidazol-4-yl]pyridine-4-carboxylic acid] |
| – | – | 1000 to 10000 | ≤ 100 | CC(c1ccccc1Cl)n1cnc(-c2cc(-c3nn[nH]n3)ccn2)c1 (stereo not drawn) [Example 157, 2-[1-[1-(2-chlorophenyl)ethyl]imidazol-4-yl]-4-(2H-tetrazol-5-yl)pyridine] |
| – | – | 100 to 1000 | ≤ 100 | O=C(O)c1ccnc(-c2ncn(CCc3ccccc3Cl)c2-c2ccc(F)cc2)c1 [Example 124, 2-[1-[2-(2-chlorophenyl)ethyl]-5-(4-fluorophenyl)imidazol-4-yl]pyridine-4-carboxylic acid] |
| – | – | 1000 to 10000 | ≤ 100 | Fc1ccc(-c2c(-c3cc(-c4nn[nH]n4)ccn3)ncn2CC(F)(F)F)cc1 [Example 134, 2-[5-(4-fluorophenyl)-1-(2,2,2-trifluoroethyl)imidazol-4-yl]-4-(2H-tetrazol-5-yl)pyridine] |
| – | – | 1000 to 10000 | 1000 to 10000 | Cn1nnc(-c2ccnc(-c3cn(Cc4ccccc4Cl)cn3)c2)n1 [Example 165, 2-(1-(2-chlorobenzyl)-1H-imidazol-4-yl)-4-(2-methyl-2H-tetrazol-5-yl)pyridine] |
| ≤ 100 | ≤ 100 | ≤ 100 | – | CN(C)CCCn1cnc(-c2cc(C(=O)O)ccn2)c1 [Example 42, 2-{1-[3-(dimethylamino)propyl]-1H-imidazol-4-yl}pyridine-4-carboxylic acid] |
| – | – | 1000 to 10000 | 100 to 1000 | Cc1ccc(OCC2CC2)c(-c2c(-c3cc(C(=O)O)ccn3)ncn2C)c1 [Example 123, 2-[5-[2-(cyclopropylmethoxy)-5-methylphenyl]-1-methylimidazol-4-yl]pyridine-4-carboxylic acid] |
| – | – | 1000 to 10000 | ≤ 100 | O=C(O)c1ccnc(-c2ncn(CC3CC3)c2-c2ccc(Cl)cc2)c1 [Example 126, 2-[5-(4-chlorophenyl)-1-(cyclopropylmethyl)imidazol-4-yl]pyridine-4-carboxylic acid] |
